Biological target: human mGlu5a receptor (Homo sapiens (Human), UniProt P41594)
Experiment: Intracellular Ca2+ mobilization assay (mGlu5 PAM)
Format: cell-based
Conditions: for EC50: HEK-293 cells stably transfected with human mGlu5a, L-glutamate added at EC20 after pre-incubation with test compound, read-out: EC50 (nM) mGlu5PAM; for Emax: maximal response in % of the maximal stimulatory effect obtained with saturating concentrations of L-glutamate, read-out: Eff. (%)
Protocol: A monoclonal HEK-293 cell line stably transfected with a cDNA encoding for the human mGlu5a receptor was generated; for the work with mGlu5 Positive Allosteric Modulators (PAMs), a cell line with low receptor expression levels and low constitutive receptor activity was selected to allow the differentiation of agonistic versus PAM activity. Cells were cultured according to standard protocols (Freshney, 2000) in Dulbecco's Modified Eagle Medium with high glucose supplemented with 1 mM glutamine, 10% (vol/vol) heat-inactivated bovine calf serum, Penicillin/Streptomycin, 50 μg/ml hygromycin and 15 μg/ml blasticidin (all cell culture reagents and antibiotics from Invitrogen, Basel, Switzerland).
About 24 hrs before an experiment, 5×10^4 cells/well were seeded in poly-D-lysine coated, black/clear-bottomed 96-well plates. The cells were loaded with 2.5 μM Fluo-4AM in loading buffer (1×HBSS, 20 mM HEPES) for 1 hr at 37° C. and washed five times with loading buffer. The cells were transferred into a Functional Drug Screening System 7000 (Hamamatsu, Paris, France), and 11 half logarithmic serial dilutions of test compound at 37° C. were added and the cells were incubated for 10-30 min. with on-line recording of fluorescence. Following this pre-incubation step, the agonist L-glutamate was added to the cells at a concentration corresponding to EC20 (typically around 80 μM) with on-line recording of fluorescence; in order to account for day-to-day variations in the responsiveness of cells, the EC20 of glutamate was determined immediately ahead of each experiment by recording of a full dose-response curve of glutamate.
Responses were measured as peak increase in fluorescence minus basal (i.e. fluorescence without addition of L-glutamate), normalized to the maximal stimulatory effect obtained with saturating concentrations of L-glutamate. Graphs were plotted with the % maximal stimulatory using XLfit, a curve fitting program that iteratively plots the data using Levenburg Marquardt algorithm. The single site competition analysis equation used was y=A+((B−A)/(1+((x/C)D))), where y is the % maximal stimulatory effect, A is the minimum y, B is the maximum y, C is the EC50, x is the log10 of the concentration of the competing compound and D is the slope of the curve (the Hill Coefficient). From these curves the EC50 (concentration at which half maximal stimulation was achieved), the Hill coefficient as well as the maximal response in % of the maximal stimulatory effect obtained with saturating concentrations of L-glutamate were calculated.
A depression of the signal observed after addition of the EC20 concentration of L-glutamate was indicative of an inhibitory activity of the test compound.

Chain of human mGlu5a receptor (P41594 other isoform, or with tags, fused parts or gaps): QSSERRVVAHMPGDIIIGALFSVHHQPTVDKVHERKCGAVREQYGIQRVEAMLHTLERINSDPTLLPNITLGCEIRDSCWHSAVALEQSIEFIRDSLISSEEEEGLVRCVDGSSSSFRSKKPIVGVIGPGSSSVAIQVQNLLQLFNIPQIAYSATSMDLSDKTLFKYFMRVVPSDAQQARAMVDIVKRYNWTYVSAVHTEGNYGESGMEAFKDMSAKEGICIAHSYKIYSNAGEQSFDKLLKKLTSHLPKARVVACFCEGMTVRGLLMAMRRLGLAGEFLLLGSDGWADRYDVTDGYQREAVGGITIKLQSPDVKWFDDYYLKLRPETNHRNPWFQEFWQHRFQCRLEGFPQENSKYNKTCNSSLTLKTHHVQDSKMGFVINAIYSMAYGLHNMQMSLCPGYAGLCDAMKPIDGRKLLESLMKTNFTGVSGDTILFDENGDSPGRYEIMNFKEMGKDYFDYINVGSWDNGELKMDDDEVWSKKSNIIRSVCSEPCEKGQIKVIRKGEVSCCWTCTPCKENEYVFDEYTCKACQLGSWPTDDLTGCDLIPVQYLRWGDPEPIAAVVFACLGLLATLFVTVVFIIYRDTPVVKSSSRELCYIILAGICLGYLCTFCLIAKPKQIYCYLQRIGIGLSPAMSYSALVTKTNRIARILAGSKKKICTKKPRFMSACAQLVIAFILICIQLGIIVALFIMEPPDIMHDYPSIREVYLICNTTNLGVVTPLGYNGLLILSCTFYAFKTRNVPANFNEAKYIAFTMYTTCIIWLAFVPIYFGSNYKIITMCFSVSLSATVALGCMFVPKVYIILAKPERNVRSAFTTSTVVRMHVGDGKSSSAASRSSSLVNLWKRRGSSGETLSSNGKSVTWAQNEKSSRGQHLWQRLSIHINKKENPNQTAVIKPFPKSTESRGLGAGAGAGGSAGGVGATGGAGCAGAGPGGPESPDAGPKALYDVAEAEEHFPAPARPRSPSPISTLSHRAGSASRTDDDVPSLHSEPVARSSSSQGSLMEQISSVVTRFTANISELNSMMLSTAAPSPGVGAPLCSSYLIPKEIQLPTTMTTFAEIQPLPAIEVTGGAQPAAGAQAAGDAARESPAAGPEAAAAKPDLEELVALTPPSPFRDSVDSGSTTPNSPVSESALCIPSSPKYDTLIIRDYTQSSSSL

| Structure (SMILES) | EC50 [nM] | Emax [%] |
| --- | --- | --- |
| CN1C(=O)N(c2ncc(C#Cc3ccccc3)cn2)CCC1(C)C [Example 137, 3,4,4-Trimethyl-5′-phenylethynyl-3,4,5,6-tetrahydro-[1,2′]bipyrimidinyl-2-one] | 66 | 74 |
| O=C1OC2(CC2)CN1c1ccc(C#Cc2cccnc2)cn1 [Example 36, 6-(5-Pyridin-3-ylethynyl-pyridin-2-yl)-4-oxa-6-aza-spiro[2.4]heptan-5-one] | 58 | 80 |
| CC1(C)CN(c2ccc(C#Cc3ccccc3)cn2)C1=O [Example 97, 3,3-Dimethyl-1-(5-phenylethynyl-pyridin-2-yl)-azetidin-2-one] | 36 | 71 |
| O=C1CS(=O)(=O)CCN1c1ccc(C#Cc2ccccc2)cn1 [Example 173, 1,1-Dioxo-4-(5-phenylethynyl-pyridin-2-yl)-thiomorpholin-3-one] | 29 | 82 |
| CC1(C)CCC(=O)N(c2ncc(C#Cc3ccccc3)cn2)C1 [Example 116, 5,5-Dimethyl-1-(5-phenylethynyl-pyrimidin-2-yl)-piperidin-2-one] | 41 | 101 |
| CN1C(=O)N(c2ccc(C#Cc3cccc(F)c3)cn2)CC12CC2 [Example 113, 6-[5-(3-Fluoro-phenylethynyl)-pyridin-2-yl]-4-methyl-4,6-diaza-spiro[2.4]heptan-5-one] | 51 | 75 |
| CC1(C)CCN(c2ccc(C#Cc3ccccc3)cn2)C(=O)C1 [Example 87, 4,4-Dimethyl-5′-phenylethynyl-3,4,5,6-tetrahydro-[1,2′]bipyridinyl-2-one] | 12 | 89 |
| CC1(C)CC(=O)N(c2ncc(C#Cc3ccccc3)cc2F)C1 [Example 21, 1-(3-Fluoro-5-phenylethynyl-pyridin-2-yl)-4,4-dimethyl-pyrrolidin-2-one] | 30 | 128 |
| CC1(C)CC(=O)N(c2ccc(C#Cc3cccc(F)c3)cn2)C1 [Example 40, 1-[5-(3-Fluoro-phenylethynyl)-pyridin-2-yl]-4,4-dimethyl-pyrrolidin-2-one] | 15 | 100 |
| CC1(C)CCN(c2cnc(C#Cc3ccccc3)cn2)C(=O)N1 [Example 164, 4,4-Dimethyl-1-(5-(phenylethynyl)pyrazin-2-yl)tetrahydropyrimidin-2(1H)-one] | 329 | 89 |
| CC1(C)CCN(c2cnc(C#Cc3ccccc3)cn2)C(=O)O1 [Example 168, 6,6-Dimethyl-3-(5-(phenylethynyl)pyrazin-2-yl)-1,3-oxazinan-2-one] | 15 | 41 |
| CN1C(=O)N(c2ccc(C#Cc3cncnc3)cn2)CC1(C)C [Example 55, 3,4,4-Trimethyl-1-(5-pyrimidin-5-ylethynyl-pyridin-2-yl)-imidazolidin-2-one] | 54 | 110 |
| CC1(C)CC(=O)N(c2ccc(C#Cc3cncc(F)c3)cn2)C1 [Example 37, 1-[5-(5-Fluoro-pyridin-3-ylethynyl)-pyridin-2-yl]-4,4-dimethyl-pyrrolidin-2-one] | 22 | 96 |
| CN1CC(C)(C)CN(c2ccc(C#Cc3ccccc3)cn2)C1=O [Example 26, 1,5,5-Trimethyl-3-(5-phenylethynyl-pyridin-2-yl)-tetrahydro-pyrimidin-2-one] |  | 131 |
| CN1C(=O)N(c2ccc(C#Cc3ccccc3)cn2)CC1C(C)(C)C (racemic) [Example 107, (RS)-4-tert-Butyl-3-methyl-1-(5-phenylethynyl-pyridin-2-yl)-imidazolidin-2-one] | 59 | 106 |
| CO[C@@H]1C(=O)N(c2ccc(C#Cc3ccccc3)cn2)CC1(C)C (single isomer, unassigned) [Example 61] | 75 | 70 |
| O=C1N(c2ccc(C#Cc3ccccc3)cn2)CC2CCCCN12 (racemic) [Example 58, (RS)-2-(5-Phenylethynyl-pyridin-2-yl)-hexahydro-imidazo[1,5-a]pyridin-3-one] | 33 | 43 |

| Structure (SMILES) | EC50 [nM] | Emax [%] |
| --- | --- | --- |
| CN1C(=O)N(c2ccc(C#Cc3ccccc3)cn2)CC1C1CC1 (racemic) [Example 83, (RS)-4-Cyclopropyl-3-methyl-1-(5-phenylethynyl-pyridin-2-yl)-imidazolidin-2-one] | 53 | 86 |
| CC1(C)CN(c2ccc(C#Cc3cc(F)ccc3F)cn2)C(=O)O1 [Example 34, 3-[5-(2,5-Difluoro-phenylethynyl)-pyridin-2-yl]-5,5-dimethyl-oxazolidin-2-one] | 11 | 38 |
| O=C1[C@H]2CCC[C@H]2N1c1ccc(C#Cc2cccnc2)cn1 (racemic) [Example 98, (1RS,5SR)-6-(5-Pyridin-3-ylethynyl-pyridin-2-yl)-6-aza-bicyclo[3.2.0]heptan-7-one] | 39 | 73 |
| CC(C)(C)C1CN(c2ccc(C#Cc3ccccc3)cn2)C(=O)O1 (racemic) [Example 8, (5RS)-5-tert-Butyl-3-(5-phenylethynyl-pyridin-2-yl)-oxazolidin-2-one] | 17 | 62 |
| CC(C)(C)C1(C)CN(c2ccc(C#Cc3ccccc3)cn2)C(=O)O1 (racemic) [Example 19, (5RS)-5-tert-Butyl-5-methyl-3-(5-phenylethynyl-pyridin-2-yl)-oxazolidin-2-one] | 27 | 85 |
| COC[C@H]1CN(c2ccc(C#Cc3ccccc3)cn2)C(=O)O1 (single isomer, unassigned) [Example 3, (5R or 5S)-5-Methoxymethyl-3-(5-phenylethynyl-pyridin-2-yl)-oxazolidin-2-one] | 18 | 46 |
| CN1C(=O)N(c2ccc(C#Cc3ccccc3)cn2)[C@@H]2CCC[C@@H]21 (racemic) [Example 106, (3aRS, 6aSR)-1-methyl-3-(5-(phenylethynyl)pyridin-2-yl)hexahydrocyclopenta[d]imidazol-2(1H)-one] | 30 | 42 |
| CN1C(=O)N(c2ncc(C#Cc3ccccc3)cn2)CC1(C)C [Example 122, 3,4,4-Trimethyl-1-(5-phenylethynyl-pyrimidin-2-yl)-imidazolidin-2-one] | 11 | 36 |
| O=C1[C@H]2CCC[C@H]2N1c1ccc(C#Cc2ccccc2)cn1 (racemic) [Example 46, (1RS,5SR)-6-(5-Phenylethynyl-pyridin-2-yl)-6-aza-bicyclo[3.2.0]heptan-7-one] | 26 | 27 |
| CC1(C)CN(c2ccc(C#Cc3ccc(F)c(F)c3)cn2)C(=O)O1 [Example 33, 3-[5-(3,4-Difluoro-phenylethynyl)-pyridin-2-yl]-5,5-dimethyl-oxazolidin-2-one] | 32 | 44 |
| CC1N(c2ccc(C#Cc3ccccc3)cn2)C(=O)OC1(C)C (racemic) [Example 27, (RS)-4,5,5-Trimethyl-3-(5-phenylethynyl-pyridin-2-yl)-oxazolidin-2-one] | 15 | 61 |
| CCN1C(=O)N(c2ncc(C#Cc3ccc(F)cc3)cn2)CC1(C)C [Example 143, 1-[5-(4-Fluoro-phenylethynyl)-pyrimidin-2-yl]-3-ethyl-4,4-dimethyl-imidazolidin-2-one] | 47 | 68 |
| CN1C(=O)N(c2ccc(C#Cc3cc(F)ccc3F)cn2)CCC1(C)C [Example 68, 1-[5-(2,5-Difluoro-phenylethynyl)-pyridin-2-yl]-3,4,4-trimethyl-tetrahydro-pyrimidin-2-one] | 41 | 79 |
| CC1(C)CCN(c2ccc(C#Cc3cccc(Cl)c3)cn2)C(=O)C1 [Example 89, 5′-(3-Chloro-phenylethynyl)-4,4-dimethyl-3,4,5,6-tetrahydro-[1,2′]bipyridinyl-2-one] | 25 | 78 |
| CC1(C)CN(c2ccc(C#Cc3ccccc3)nn2)C(=O)O1 [Example 152, 5,5-Dimethyl-3-(6-(phenylethynyl)pyridazin-3-yl)oxazolidin-2-one] | 15 | 112 |
| CN1C(=O)N(c2cnc(C#Cc3ccccc3)cn2)CC1(C)C [Example 156, 3,4,4-Trimethyl-1-(5-(phenylethynyl)pyrazin-2-yl)imidazolidin-2-one] | 24 | 58 |

Source: patent US9315498B2, “Arlethynyl derivatives” (Hoffmann-La Roche Inc., priority 2010, dated 2016)
